Legend:
PI3Kalpha = PI3Kalpha (Homo sapiens (Human), UniProt P42336); experiment: Cell-free kinase assay (ALPHA technology), PI3Kalpha; assay type: biochemical; conditions: 100 μM ATP
Procedure: (§1) The inhibitory effect of the compounds according to the invention was tested on various serine/threonine, tyrosine and lipid kinases in enzymatic assays. Recombinant human kinases such as, for example, Erk2, PI3Kalpha, -beta, -gamma, -delta, p38alpha, p38gamma, Jnk1, Jnk2 and others were used in this case, partly as full-length kinases, partly as shortened fragments, but at least consisting of the functional kinase domains. The commercial kinase proteins (Proqinase, Upstate) were used as recombinant fusion proteins with GST (glutathion-S-transferase) or His-Tag. Depending on the type of substrate, the various kinase reactions were quantified by means of suitable ALPHA™ beads (Perkin-Elmer).
(§2) The substance testing is described in detail hereinafter for the Erk assay.
(§3) a) MAPK-ALPHAs (e.g. Erk2): the test substance, 0.625 ng Erk2 (#14-173, Upstate), 10 μM ATP and 15 nM biotinylated MBP (myelin basic protein) substrate were incubated on a 384-well Optiplate (Perkin-Elmer) in a volume of 15 μl for 1 h in 25 mM Tris, 10 mM MgCl2, 0.1% Tween-20, 100 μM NaVO4, 2 mM DTT at pH 7.5. The kinase reaction was then stopped by adding 10 μl of the ALPHA bead mixes (10 μg/ml, #6760617/Perkin-Elmer) pre-incubated with anti-phospho MBP antibody (320 pM, #05-429/Upstate) in 25 mM Tris, 200 mM NaCl, 110 nM EDTA and 0.3% BSA and left to stand overnight. b) PI3K-ALPHAs (e.g. PI3Kalpha): the test substance, 1 ng PI3Kalpha (#14-602, Upstate), 100 μM ATP and 20 μM PIP2 substrate (#P4508, Echelon) were incubated on a 384-well Optiplate (Perkin-Elmer) for 1 h in 50 mM Hepes, 50 mM NaCl, 5 mM MgCl2, 0.05% Chaps, 5 mM DTT at pH 7.4. The kinase reaction was then stopped by adding ALPHA bead mixes (10 μg/ml, #6760603/Perkin-Elmer) pre-incubated with 1 nM GST:Grp1 fusion protein (Upstate) and 15 nM biotinylated PIP3 (#C-39B6/Echelon) in 50 mM Hepes, 50 mM NaCl, 50 mM EDTA and 0.1% BSA and left to stand overnight.
(§4) The fluorescence was detected the following morning in a Fusion™^aα-system (Perkin-Elmer).
(§5) The %-inhibition values per substance concentration were calculated by means of the following formula from the raw data determined in the Fusion™ ? :
(§6) Eight determinations were made for each control and two for the substance samples. The 0% control either contains no ATP or no substrate, the 100% control (fully active kinase) contains no test substance. The IC50 values were determined using GraphPadPrism.

Erk2 = Erk2 (Homo sapiens, UniProt P28482); experiment: Cell-free kinase assay (ALPHA technology), Erk2; assay type: biochemical; conditions: 10 μM ATP
Procedure: The inhibitory effect of the compounds according to the invention was tested on various serine/threonine, tyrosine and lipid kinases in enzymatic assays. […] The commercial kinase proteins (Proqinase, Upstate) were used as recombinant fusion proteins with GST (glutathion-S-transferase) or His-Tag. Depending on the type of substrate, the various kinase reactions were quantified by means of suitable ALPHA™ beads (Perkin-Elmer). The substance testing is described in detail hereinafter for the Erk assay. […] a) MAPK-ALPHAs (e.g. […] The kinase reaction was then stopped by adding ALPHA bead mixes (10 μg/ml, #6760603/Perkin-Elmer) pre-incubated with 1 nM GST:Grp1 fusion protein (Upstate) and 15 nM biotinylated PIP3 (#C-39B6/Echelon) in 50 mM Hepes, 50 mM NaCl, 50 mM EDTA and 0.1% BSA and left to stand overnight. The fluorescence was detected the following morning in a Fusion™^aα-system (Perkin-Elmer). […] Eight determinations were made for each control and two for the substance samples. […] The IC50 values were determined using GraphPadPrism.

p38alpha = p38alpha (Homo sapiens (Human), UniProt Q16539); experiment: Cell-free kinase assay (ALPHA technology), p38alpha; assay type: biochemical; conditions: 10 μM ATP
Procedure: as §1, §2, §3, §4, §5, §6

Jnk1 + Jnk2 = experiment: Cell-free kinase assay (ALPHA technology), Jnk1 + Jnk2; assay type: biochemical, human; conditions: 10 μM ATP
Procedure: as §1, §2, §3, §4, §5, §6

Chain of PI3Kalpha (P42336 whole entry, the tested form may be a part): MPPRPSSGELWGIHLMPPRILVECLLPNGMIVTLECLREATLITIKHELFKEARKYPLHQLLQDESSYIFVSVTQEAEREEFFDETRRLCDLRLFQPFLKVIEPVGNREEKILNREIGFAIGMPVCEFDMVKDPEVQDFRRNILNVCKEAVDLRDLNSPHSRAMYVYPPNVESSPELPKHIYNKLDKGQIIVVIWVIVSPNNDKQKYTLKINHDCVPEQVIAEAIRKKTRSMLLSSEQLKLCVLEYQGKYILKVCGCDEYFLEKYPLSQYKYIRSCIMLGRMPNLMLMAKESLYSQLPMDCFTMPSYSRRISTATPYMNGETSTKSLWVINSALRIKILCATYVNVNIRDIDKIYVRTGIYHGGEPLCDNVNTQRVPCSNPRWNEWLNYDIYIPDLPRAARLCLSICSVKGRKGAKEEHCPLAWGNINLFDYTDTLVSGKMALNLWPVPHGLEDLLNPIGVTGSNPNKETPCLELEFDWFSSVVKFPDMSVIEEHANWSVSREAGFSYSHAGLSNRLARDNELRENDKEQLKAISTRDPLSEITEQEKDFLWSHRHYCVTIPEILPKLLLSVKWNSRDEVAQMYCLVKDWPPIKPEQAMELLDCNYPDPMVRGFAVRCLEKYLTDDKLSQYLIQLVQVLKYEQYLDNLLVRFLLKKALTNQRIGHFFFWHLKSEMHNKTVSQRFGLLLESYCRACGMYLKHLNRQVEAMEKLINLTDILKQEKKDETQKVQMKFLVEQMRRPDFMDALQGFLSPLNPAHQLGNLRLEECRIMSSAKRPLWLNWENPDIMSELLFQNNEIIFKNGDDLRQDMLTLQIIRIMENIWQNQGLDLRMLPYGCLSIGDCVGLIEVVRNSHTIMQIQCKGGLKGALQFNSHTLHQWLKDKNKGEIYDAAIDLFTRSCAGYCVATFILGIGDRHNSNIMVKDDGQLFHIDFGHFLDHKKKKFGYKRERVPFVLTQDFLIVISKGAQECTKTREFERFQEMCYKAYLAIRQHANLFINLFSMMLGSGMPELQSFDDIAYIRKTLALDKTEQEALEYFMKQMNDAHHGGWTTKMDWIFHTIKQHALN
Chain of PI3Kalpha (P27986 whole entry partner, the tested form may be a part): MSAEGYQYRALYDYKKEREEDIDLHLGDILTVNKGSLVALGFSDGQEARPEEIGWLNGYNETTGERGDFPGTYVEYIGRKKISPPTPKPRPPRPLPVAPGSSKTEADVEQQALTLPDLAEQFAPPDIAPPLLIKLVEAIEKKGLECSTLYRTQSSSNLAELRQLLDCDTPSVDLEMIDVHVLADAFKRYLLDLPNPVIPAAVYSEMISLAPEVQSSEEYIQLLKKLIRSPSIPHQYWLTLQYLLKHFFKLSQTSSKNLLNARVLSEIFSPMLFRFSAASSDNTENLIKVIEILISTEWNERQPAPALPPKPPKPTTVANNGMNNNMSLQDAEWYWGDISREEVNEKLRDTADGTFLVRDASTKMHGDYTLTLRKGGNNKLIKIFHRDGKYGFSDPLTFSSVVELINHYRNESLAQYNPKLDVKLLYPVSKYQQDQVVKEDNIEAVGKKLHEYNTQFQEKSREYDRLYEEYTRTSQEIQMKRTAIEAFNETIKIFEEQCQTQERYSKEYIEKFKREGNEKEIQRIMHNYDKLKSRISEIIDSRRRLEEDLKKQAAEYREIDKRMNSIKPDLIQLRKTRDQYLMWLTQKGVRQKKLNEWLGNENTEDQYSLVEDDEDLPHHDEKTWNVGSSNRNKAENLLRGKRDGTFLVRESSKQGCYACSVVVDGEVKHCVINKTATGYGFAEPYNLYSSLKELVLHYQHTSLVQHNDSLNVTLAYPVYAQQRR
Chain of Erk2 (P28482 2-360 limits assumed): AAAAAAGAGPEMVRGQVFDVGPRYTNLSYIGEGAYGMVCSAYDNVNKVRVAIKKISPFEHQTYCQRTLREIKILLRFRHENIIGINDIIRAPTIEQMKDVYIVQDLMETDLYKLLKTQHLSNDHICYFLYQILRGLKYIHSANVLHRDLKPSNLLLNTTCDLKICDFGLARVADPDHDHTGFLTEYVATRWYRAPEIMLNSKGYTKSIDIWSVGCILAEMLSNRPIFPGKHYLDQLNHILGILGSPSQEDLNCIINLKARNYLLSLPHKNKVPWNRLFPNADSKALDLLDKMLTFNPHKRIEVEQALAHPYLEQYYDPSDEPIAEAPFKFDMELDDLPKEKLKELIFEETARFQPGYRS
Chain of p38alpha (Q16539 whole entry): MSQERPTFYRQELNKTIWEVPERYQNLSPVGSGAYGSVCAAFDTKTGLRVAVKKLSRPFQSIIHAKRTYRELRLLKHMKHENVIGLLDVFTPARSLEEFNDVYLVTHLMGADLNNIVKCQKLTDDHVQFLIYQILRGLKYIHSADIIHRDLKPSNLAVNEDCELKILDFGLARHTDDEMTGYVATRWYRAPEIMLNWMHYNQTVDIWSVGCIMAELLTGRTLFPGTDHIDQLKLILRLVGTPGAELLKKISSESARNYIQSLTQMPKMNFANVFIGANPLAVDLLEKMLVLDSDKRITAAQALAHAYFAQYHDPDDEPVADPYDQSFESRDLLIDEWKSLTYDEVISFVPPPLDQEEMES

melting point	IC50 (PI3Kalpha)	IC50 (Erk2)	IC50 (p38alpha)	IC50 (Jnk1 + Jnk2)	SMILES
–	0.295 µM	> 31.6 µM	> 100 µM	3.9 µM	CCNC(=O)Nc1ccc2ncc(Nc3ccc(OC)c(Cl)c3)nc2n1 [Compound 177, 1-[3-(3-Chloro-4-methoxy-phenylamino)-pyrido[2,3-b]pyrazin-6-yl]-3-ethyl-urea]
–	0.164 µM	> 100 µM	> 31.6 µM	2.3 µM	CCNC(=O)Nc1ccc2ncc(Nc3ccc4ccccc4c3)nc2n1 [Compound 178, 1-Ethyl-3-[3-(naphthalin-2-ylamino)-pyrido[2,3-b]pyrazin-6-yl]-urea]
–	0.202 µM	8 µM	1.4 µM	8.1 µM	CCNC(=O)Nc1ccc2ncc(Nc3cnc4ccccc4c3)nc2n1 [Compound 179, 1-Ethyl-3-[3-(chinolin-3-ylamino)-pyrido[2,3-b]pyrazin-6-yl]-urea]
–	1.1 µM	15.7 µM	> 100 µM	8.6 µM	CCNC(=O)Nc1ccc2ncc(Nc3cc(OC)cc(OC)c3)nc2n1 [Compound 180, 1-[3-(3,5-Dimethoxy-phenylamino)-pyrido[2,3-b]pyrazin-6-yl]-3-ethyl-urea]
–	0.739 µM	1.7 µM	> 100 µM	4.3 µM	CCNC(=O)Nc1ccc2ncc(Nc3cnccn3)nc2n1 [Compound 181, 1-Ethyl-3-[3-(pyrazin-2-ylamino)-pyrido[2,3-b]pyrazin-6-yl]-urea]
–	1.1 µM	> 31.6 µM	> 100 µM	21 µM	CCNC(=O)Nc1ccc2ncc(Nc3cccc(OC(C)C)c3)nc2n1 [Compound 182, 1-Ethyl-3-[3-(3-isopropoxy-phenylamino)-pyrido[2,3-b]pyrazin-6-yl]-urea]
–	0.133 µM	> 100 µM	> 100 µM	6.3 µM	CCNC(=O)Nc1ccc2ncc(Nc3ccnc(Cl)c3)nc2n1 [Compound 184, 1-[3-(2-Chloro-pyridin-4-ylamino)-pyrido[2,3-b]pyrazin-6-yl]-3-ethyl-urea]
–	0.154 µM	> 31.6 µM	> 100 µM	4.3 µM	CCNC(=O)Nc1ccc2ncc(Nc3cc(Cl)c(O)c(Cl)c3)nc2n1 [Compound 185, 1-[3-(3,5-Dichloro-4-hydroxy-phenylamino)-pyrido[2,3-b]pyrazin-6-yl]-3-ethyl-urea]
–	0.712 µM	16.6 µM	> 31.6 µM	> 100 µM	CCNC(=O)Nc1ccc2ncc(Nc3ccc(OC)c(OC)c3)nc2n1 [Compound 187, 1-[3-(3,4-Dimethoxy-phenylamino)-pyrido[2,3-b]pyrazin-6-yl]-3-ethyl-urea]
–	2.8 µM	> 100 µM	> 100 µM	> 31.6 µM	CCNC(=O)Nc1ccc2ncc(Nc3ccc(C)c(O)c3)nc2n1 [Compound 188, 1-Ethyl-3-[3-(3-hydroxy-4-methyl-phenylamino)-pyrido[2,3-b]pyrazin-6-yl]-urea]
–	0.271 µM	> 100 µM	> 100 µM	31 µM	CCNC(=O)Nc1ccc2ncc(Nc3ccc(OC)nc3)nc2n1 [Compound 190, 1-Ethyl-3-[3-(6-methoxy-pyridin-3-ylamino)-pyrido[2,3-b]pyrazin-6-yl]-urea]
–	0.422 µM	31.6 µM	> 100 µM	1.8 µM	CCNC(=O)Nc1ccc2ncc(Nc3ccc(C#N)cc3)nc2n1 [Compound 192, 1-[3-(4-Cyano-phenylamino)-pyrido-[2,3-b]pyrazin-6-yl]-3-ethyl-urea]

Second part, the compound before the results:

SMILES	melting point	IC50 (PI3Kalpha)	IC50 (Erk2)	IC50 (p38alpha)	IC50 (Jnk1 + Jnk2)
C=CCNC(=S)Nc1ccc2ncc(-c3ccc(O)cc3)nc2n1.Cl	160 to 161 °C (dec.)	–	–	–	–
C=C(C)CNC(=S)Nc1ccc2ncc(-c3ccc(OC)cc3)nc2n1 [Compound 3, 1-[3-(4-methoxy-phenyl)-pyrido[2,3-b]pyrazin-6-yl]-3-(2-methyl-allyl)-thiourea]	251 to 252 °C (dec.)	–	–	–	–
C=C(C)CNC(=S)Nc1ccc2ncc(-c3ccccc3)nc2n1 [Compound 4, 1-(2-methyl-allyl)-3-(3-phenyl-pyrido[2,3-b]pyrazin-6-yl)-thiourea]	225 to 226 °C (dec.)	–	–	–	–
C=CCNC(=S)Nc1ccc2ncc(-c3ccc4ccccc4c3)nc2n1 [Compound 5, 1-allyl-3-(3-naphth-2-yl-pyrido[2,3-b]pyrazin-6-yl)-thiourea]	242 to 243 °C (dec.)	–	–	–	–
C=CCNC(=S)Nc1ccc2ncc(-c3ccc(OC)cc3)nc2n1 [Compound 6, 1-allyl-3-[3-(4-methoxy-phenyl)-pyrido[2,3-b]pyrazin-6-yl]-thiourea]	240 to 241 °C (dec.)	–	–	–	–
O=[N+]([O-])c1ccc(NC(=S)Nc2ccc3ncc(-c4ccc5ccccc5c4)nc3n2)cc1 [Compound 8, 1-(3-naphth-2-yl-pyrido[2,3-b]pyrazin-6-yl)-3-(4-nitro-phenyl)-thiourea]	260 to 261 °C (dec.)	–	–	–	–
COc1ccc(-c2cnc3ccc(NC(=S)Nc4ccc([N+](=O)[O-])cc4)nc3n2)cc1 [Compound 9, 1-[3-(4-methoxy-phenyl)-pyrido[2,3-b]pyrazin-6-yl]-3-(4-nitro-phenyl)-thiourea]	250 to 251 °C (dec.)	–	–	–	–
CC(C)(C)NC(=S)Nc1ccc2ncc(-c3ccccc3)nc2n1 [Compound 10, 1-tert.butyl-3-(3-phenyl-pyrido[2,3-b]pyrazin-6-yl)-thiourea]	227 °C (dec.)	–	–	–	–
S=C(Nc1ccc2ncc(-c3ccccc3)nc2n1)NC1CC1 [Compound 11, 1-cyclopropyl-3-(3-phenyl-pyrido[2,3-b]pyrazin-6-yl)-thiourea]	233 to 234 °C	–	–	–	–
CNC(=S)Nc1ccc2ncc(-c3ccccc3)nc2n1 [Compound 12, 1-methyl-3-(3-phenyl-pyrido[2,3-b]pyrazin-6-yl)-thiourea]	253 to 254 °C	–	–	–	–
S=C(NCc1ccccc1)Nc1ccc2ncc(-c3ccccc3)nc2n1 [Compound 13, 1-benzyl-3-(3-phenyl-pyrido[2,3-b]pyrazin-6-yl)-thiourea]	232 to 233 °C	–	–	–	–
Fc1ccc(NC(=S)Nc2ccc3ncc(-c4ccccc4)nc3n2)cc1 [Compound 14, 1-(4-fluoro-phenyl)-3-(3-phenyl-pyrido[2,3-b]pyrazin-6-yl)-thiourea]	225 to 226 °C	–	–	–	–
Cc1ccc(NC(=O)Nc2ccc3ncc(-c4ccccc4)nc3n2)cc1 [Compound 15, 1-(3-phenyl-pyrido[2,3-b]pyrazin-6-yl)-3-p-tolyl-urea]	298 to 299 °C	–	–	–	–
O=C(Nc1ccc(Cl)c(C(F)(F)F)c1)Nc1ccc2ncc(-c3ccccc3)nc2n1 [Compound 16, 1-(4-chloro-3-trifluoromethyl-phenyl)-3-(3-phenyl-pyrido[2,3-b]pyrazin-6-yl)-urea]	250 °C	–	–	–	–
O=C(NCCN1CCOCC1)Nc1ccc2ncc(-c3ccccc3)nc2n1 [Compound 17, 1-(2-Morpholin-4-yl-ethyl)-3-(3-phenyl-pyrido[2,3-b]pyrazin-6-yl)-urea]	226 °C	–	–	–	–
S=C(Nc1ccc2ncc(-c3ccccc3)nc2n1)NC1CCCCC1 [Compound 18, 1-cyclohexyl-3-(3-phenyl-pyrido[2,3-b]pyrazin-6-yl)-thiourea]	230 to 232 °C	–	–	–	–
CCNC(=O)Nc1ccc2ncc(Nc3cc(C(=O)O)cc(C(F)(F)F)c3)nc2n1 [Compound 189, 3-[6-(3-Ethyl-ureido)-pyrido[2,3-b]-pyrazin-3-ylamino]-5-trifluoromethyl-benzoic acid]	–	0.237 µM	20.3 µM	> 100 µM	6.2 µM

Reference: patent US8937068B2, “Pyridopyrazine derivatives and their use” (Zentaris GmbH, priority 2005, dated 2015)
